Calls of active or inactive are those of the source. How the calls were made is not given here.

For this data set, the system named is CCRIS mutagenicity, Ames/micronucleus/aberration tests. Description: CCRIS mutagenicity studies.
[1] abbreviates: Test System: AMES SALMONELLA TYPHIMURIUM, Strain/Indicator: TA98, Metabolic Activation: NONE, Method: STANDARD PLATE.
[2] abbreviates: Test System: AMES SALMONELLA TYPHIMURIUM, Strain/Indicator: TA98, Metabolic Activation: RAT, LIVER, S-9, AROCLOR 1254, Method: STANDARD PLATE.
Setting [3] is: Test System: AMES SALMONELLA TYPHIMURIUM, Strain/Indicator: TA100, Metabolic Activation: NONE, Method: STANDARD PLATE.

With `O=[N+]([O-])c1c2ccccc2c2ccc3cccc4ccc1c2c43`, the mutagenic call is “inactive; negative” (Test System: AMES SALMONELLA TYPHIMURIUM, Strain/Indicator: TA98 (1,8-DNP6), Metabolic Activation: NONE, Method: STANDARD PLATE); “inactive; negative” (Test System: AMES SALMONELLA TYPHIMURIUM, Strain/Indicator: TA98 (NR), Metabolic Activation: NONE, Method: STANDARD PLATE); “inactive; negative” under setting [1]; “inactive; negative” (Test System: AMES SALMONELLA TYPHIMURIUM, Strain/Indicator: TA98, Metabolic Activation: NONE, Method: STANDARD PLATE (ANAEROBIC)); “inactive; negative” (Test System: AMES SALMONELLA TYPHIMURIUM, Strain/Indicator: TA98, Metabolic Activation: RAT, LIVER, HEPATOCYTES, AROCLOR 1254); “active; positive” (Test System: AMES SALMONELLA TYPHIMURIUM, Strain/Indicator: TA98, Metabolic Activation: RAT, LIVER, S-9, 3-METHYLCHOLANTHRENE, Method: STANDARD PLATE). Further, the mutagenic call by setting is: under setting [2], “active; positive”; (Test System: AMES SALMONELLA TYPHIMURIUM, Strain/Indicator: TA98, Metabolic Activation: RAT, LIVER, S-9, BETA-NAPHTHOFLAVONE, Method: STANDARD PLATE) “active; positive”; (Test System: AMES SALMONELLA TYPHIMURIUM, Strain/Indicator: TA98, Metabolic Activation: RAT, LIVER, S-9, PHENOBARBITAL, Method: STANDARD PLATE) “inactive; negative”; under setting [3], “inactive; negative”; (Test System: AMES SALMONELLA TYPHIMURIUM, Strain/Indicator: TA100, Metabolic Activation: RAT, LIVER, S-9, AROCLOR 1254 (20 OR 50 µL), Method: STANDARD PLATE) “active; positive”; (Test System: CHINESE HAMSTER OVARY, Strain/Indicator: CHO-K1-BH4 (HGPRT), Metabolic Activation: NONE) “inactive; negative”. In addition, the mutagenic call is, setting by setting: (Test System: CHO/HGPRT, Strain/Indicator: CHO-K1-BH4, Metabolic Activation: NONE) “inactive; negative”; (Test System: CHO/HGPRT, Strain/Indicator: CHO-K1-BH4, Metabolic Activation: RAT, LIVER, HEPATOCYTES) “inactive; negative”; (Test System: CHO/HGPRT, Strain/Indicator: CHO-K1-BH4, Metabolic Activation: RAT, LIVER, HEPATOCYTES, 3-METHYLCHOLANTHRENE) “inactive; negative”; (Test System: CHO/HGPRT, Strain/Indicator: CHO-K1-BH4, Metabolic Activation: RAT, LIVER, HEPATOCYTES, AROCLOR 1254) “inactive; negative”; (Test System: CHO/HGPRT, Strain/Indicator: CHO-K1-BH4, Metabolic Activation: RAT, LIVER, S-9) “inactive; negative”; (Test System: CHO/HGPRT, Strain/Indicator: CHO-K1-BH4, Metabolic Activation: RAT, LIVER, S-9, 3-METHYLCHOLANTHRENE) “inactive; negative”. Under “Test System: CHO/HGPRT, Strain/Indicator: CHO-K1-BH4, Metabolic Activation: RAT, LIVER, S-9, AROCLOR 1254”, the mutagenic call was “inactive; negative”.
`Clc1cccc2oc3ccccc3c12`: the mutagenic call is, setting by setting: under setting [1], “inactive; negative”; (Test System: AMES SALMONELLA TYPHIMURIUM, Strain/Indicator: TA98, Metabolic Activation: RAT, LIVER, S-9, PHENOBARBITAL AND NAPHTHOFLAVONE, Method: STANDARD PLATE) “inactive; negative”; under setting [3], “inactive; negative”; (Test System: AMES SALMONELLA TYPHIMURIUM, Strain/Indicator: TA100, Metabolic Activation: RAT, LIVER, S-9, PHENOBARBITAL AND NAPHTHOFLAVONE, Method: STANDARD PLATE) “inactive; negative”.
For the compound `O=C1c2c(O)ccc([N+](=O)[O-])c2C(=O)c2c([N+](=O)[O-])ccc(O)c21`, the mutagenic call by setting is: (Test System: AMES SALMONELLA TYPHIMURIUM, Strain/Indicator: TA98, Metabolic Activation: HAMSTER, LIVER, S-9, AROCLOR 1254 (10%), Method: PREINCUBATION) “active; positive”; (Test System: AMES SALMONELLA TYPHIMURIUM, Strain/Indicator: TA98, Metabolic Activation: NONE, Method: PREINCUBATION) “active; positive”; under setting [1], “active; positive”; (Test System: AMES SALMONELLA TYPHIMURIUM, Strain/Indicator: TA98, Metabolic Activation: RAT, LIVER, S-9, AROCLOR 1254 (10%), Method: PREINCUBATION) “active; positive”; under setting [2], “active; positive”; (Test System: AMES SALMONELLA TYPHIMURIUM, Strain/Indicator: TA100, Metabolic Activation: HAMSTER, LIVER, S-9, AROCLOR 1254 (10%), Method: PREINCUBATION) “active; positive”. In addition, the mutagenic call by setting is: (Test System: AMES SALMONELLA TYPHIMURIUM, Strain/Indicator: TA100, Metabolic Activation: NONE, Method: PREINCUBATION) “active; positive”; under setting [3], “active; positive”; (Test System: AMES SALMONELLA TYPHIMURIUM, Strain/Indicator: TA100, Metabolic Activation: RAT, LIVER, S-9, AROCLOR 1254 (10%), Method: PREINCUBATION) “active; positive”; (Test System: AMES SALMONELLA TYPHIMURIUM, Strain/Indicator: TA100, Metabolic Activation: RAT, LIVER, S-9, AROCLOR 1254, Method: STANDARD PLATE) “active; positive”; (Test System: AMES SALMONELLA TYPHIMURIUM, Strain/Indicator: TA1535, Metabolic Activation: HAMSTER, LIVER, S-9, AROCLOR 1254 (10%), Method: PREINCUBATION) “active; positive”; (Test System: AMES SALMONELLA TYPHIMURIUM, Strain/Indicator: TA1535, Metabolic Activation: NONE, Method: PREINCUBATION) “active; positive”. The mutagenic call by setting is: (Test System: AMES SALMONELLA TYPHIMURIUM, Strain/Indicator: TA1535, Metabolic Activation: NONE, Method: STANDARD PLATE) “inactive; negative”; (Test System: AMES SALMONELLA TYPHIMURIUM, Strain/Indicator: TA1535, Metabolic Activation: RAT, LIVER, S-9, AROCLOR 1254 (10%), Method: PREINCUBATION) “active; positive”; (Test System: AMES SALMONELLA TYPHIMURIUM, Strain/Indicator: TA1537, Metabolic Activation: HAMSTER, LIVER, S-9, AROCLOR 1254 (10%), Method: PREINCUBATION) “active; positive”; (Test System: AMES SALMONELLA TYPHIMURIUM, Strain/Indicator: TA1537, Metabolic Activation: NONE, Method: PREINCUBATION) “active; positive”; (Test System: AMES SALMONELLA TYPHIMURIUM, Strain/Indicator: TA1537, Metabolic Activation: NONE, Method: STANDARD PLATE) “active; positive”; (Test System: AMES SALMONELLA TYPHIMURIUM, Strain/Indicator: TA1537, Metabolic Activation: RAT, LIVER, S-9, AROCLOR 1254 (10%), Method: PREINCUBATION) “active; positive”. The mutagenic call (Test System: AMES SALMONELLA TYPHIMURIUM, Strain/Indicator: TA1537, Metabolic Activation: RAT, LIVER, S-9, AROCLOR 1254, Method: STANDARD PLATE) was “active; positive”; the mutagenic call (Test System: AMES SALMONELLA TYPHIMURIUM, Strain/Indicator: TA1538, Metabolic Activation: NONE, Method: STANDARD PLATE) was “active; positive”; the mutagenic call (Test System: AMES SALMONELLA TYPHIMURIUM, Strain/Indicator: TA1538, Metabolic Activation: RAT, LIVER, S-9, AROCLOR 1254, Method: STANDARD PLATE) was “active; positive”; the mutagenic call (Test System: AMES SALMONELLA TYPHIMURIUM, Strain/Indicator: TA1978, Metabolic Activation: NONE, Method: STANDARD PLATE) was “active; positive”; the mutagenic call (Test System: AMES SALMONELLA TYPHIMURIUM, Strain/Indicator: TA1978, Metabolic Activation: RAT, LIVER, S-9, AROCLOR 1254, Method: STANDARD PLATE) is “active; positive”.
